{"source": "patent US8822526B2", "about": "“Synergistic pharmaceutical combination for the treatment of cancer” (Piramal Enterprises Limited, priority 2007, dated 2014)", "key": {"[1]": {"tested_on": "human non-small cell lung carcinoma H-460 cells", "assay": "In vitro cytotoxicity assay (MTS)", "description": "The cytotoxicity assay used was MTS (3-(4,5-dimethylthiazol-2-yl)-5-(3-carboxymethoxyphenyl)-2-(4-sulfophenyl)-2H-tetrazolium, inner salt) assay. The human non-small cell lung carcinoma H-460 cells were seeded at a density of 1500 cells/well in 180 μL of culture medium in 96-well plate and incubated overnight to allow the cells to adhere. Varying concentrations of the drugs contained in the combination were added to the wells and incubated for an appropriate period of time in humidified 5% CO2 incubator at 37° C. in case of a single drug exposure. […] Control wells were treated with a vehicle. At the end of the incubation period, the medium was removed from the wells and 20 μL of MTS (2 mg/mL in phosphate buffer saline, pH 6-6.5 and filter sterilized) and 1 μL of phenazine methosulfate (PMS, 3 mM in phosphate buffered saline, pH 7.3 and filter sterilized) was added to each well and the total volume was adjusted to 200 μL with complete medium. The plate was incubated for 2-4 hours in humidified 5% CO2 incubator at 37° C.\n(§1) After completion of the drugs treatment i.e. at the end of 96 hours the plates were processed for MTS viability assay and the percent cytotoxicity was calculated as compared to control.\nas §1\n(§2) The human non-small cell lung carcinoma H-460 cells were seeded at a density of 1500 cells/well. […] After completion of the drugs treatment i.e. at the end of 120 hours the plates were processed for MTS viability assay and the percent cytotoxicity was calculated as compared to control.\nas §2\nThe human non-small cell lung carcinoma H-460 cells were seeded at a density of 1500 cells/well. […] After completion of the drugs treatment i.e. at the end of 120 hours, the plates were processed for MTS viability assay and the percent cytotoxicity was calculated as compared to control.\n(§3) After completion of the drugs treatment i.e. at the end of 48 hours the plates were processed for MTS viability assay and the percent cytotoxicity was calculated as compared to control.\nThe plates were processed for MTS viability assay and the percent cytotoxicity was calculated as compared to control.\nas §3\nThe human non-small cell lung carcinoma H-460 cells were seeded at a density of 1500 cells/well. As per Table 16A the cells were first treated with either of the drugs alone i.e. with doxorubicin or flavopiridol alone. Doxorubicin treatment was for the first 24 hours followed by complete medium for 96 hours while in case of flavopiridol, the first 24 hours was in complete medium followed by flavopiridol for the next 96 hours. […] After completion of the drugs treatment i.e. at the end of 120 hours the plates were processed for MTS viability assay and the percent cytotoxicity was calculated as compared to control.\nAs per Table 16B the cells were first treated with either of the drugs alone i.e. with doxorubicin or flavopiridol alone. Flavopiridol treatment was for the first 96 hours followed by complete medium for 24 hours while in case of doxorubicin, the first 96 hours was in complete medium followed by doxorubicin for 24 hours. […] After completion of the drugs treatment i.e. at the end of 120 hours, the plates were processed for MTS viability assay and the percent cytotoxicity was calculated as compared to control.\nThe human non-small cell lung carcinoma H-460 cells were seeded at a density of 1500 cells/well."}, "[2]": {"tested_on": "COX-2", "assay": "Western blot analysis using COX-2 antibody", "assay_type": "in vivo, human", "details": "H-460 tumor xenograft; FIG. 9", "excerpt": "FIG. 9 indicates western blot analysis using COX-2 antibody.\nTherefore, NFκB mediated inhibition of COX-2 by the compound A could be involved in suppressing tumor growth and doxorubicin induced chemoresistance in human non-small cell lung carcinoma (H-460) tumor xenograft."}, "[3]": {"tested_on": "NCI-H460/R", "details": "J. Chemother., 2006 February; 18(1) 66-73; cited from earlier work"}, "[4]": {"tested_on": "pancreatic cells (Panc-1)", "assay": "Analysis of cell cycle distribution and flow cytometry (sub G1 apoptosis)", "assay_type": "cell-based, human", "details": "FIG. 3: 70 nM gemcitabine alone (24 hours); 300 nM compound A alone (72 hours); combination 70 nM gemcitabine (24 hours) followed by 300 nM compound A (72 hours)"}, "[5]": {"tested_on": "human pancreatic (Panc-1) cell line", "assay": "In vitro cytotoxicity assay (MTS)", "assay_type": "cell-based"}}, "note": "Values joined by “and” are separate entries in the source; they are usually repeats but may differ in a detail not shown here. Equal values may be shown once. Read-outs that look alike come from different tables or passages of the source.", "data": [{"smiles": "COc1cccc2c1C(=O)c1c(O)c3c(c(O)c1C2=O)C[C@@](O)(C(=O)CO)C[C@@H]3O[C@H]1C[C@H](N)[C@H](O)[C@H](C)O1", "note": "[Doxorubicin]", "values": [{"measurement": "% Cytotoxicity", "setting": "[1]; Doxorubicin 30 nM alone for 120 hours", "value": 2, "unit": "%"}, {"measurement": "% Cytotoxicity", "setting": "[1]; Doxorubicin 30 nM first 24 hours, then complete medium 96 hours, MTS at 120 hours", "value": 0, "unit": "%"}, {"measurement": "% Cytotoxicity", "setting": "[1]; Doxorubicin 70 nM first 24 hours, then complete medium 96 hours, MTS at 120 hours", "value": "14% and 12%"}, {"measurement": "% Cytotoxicity", "setting": "[1]; Doxorubicin 100 nM alone for 120 hours", "value": 24, "unit": "%"}, {"measurement": "% Cytotoxicity", "setting": "[1]; Doxorubicin 100 nM first 24 hours, then complete medium 72 hours, MTS at 96 hours", "value": 16, "unit": "%"}, {"measurement": "% Cytotoxicity", "setting": "[1]; Doxorubicin 100 nM first 24 hours, then complete medium 96 hours, MTS at 120 hours", "value": 8, "unit": "%"}, {"measurement": "% Cytotoxicity", "setting": "[1]; Doxorubicin 100 nM first 24 hours, then complete medium 96 hours, MTS at 120 hours, listed as Doxo.", "value": "16% and 9%"}, {"measurement": "% Cytotoxicity", "setting": "[1]; Doxorubicin 200 nM first 24 hours, then complete medium 96 hours, MTS at 120 hours", "value": 17, "unit": "%"}, {"measurement": "cytotoxicity at 0.03 µM", "setting": "[1]; Homo sapiens, NCI-H460, 120 h, Doxorubicin 30 nM alone for 120 hours", "value": 3, "unit": "%"}, {"measurement": "cytotoxicity at 0.07 µM", "setting": "[1]; Homo sapiens, NCI-H460, 120 h, Doxorubicin 70 nM alone for 120 hours", "value": 28, "unit": "%"}, {"measurement": "cytotoxicity at 0.1 µM", "setting": "[1]; Homo sapiens, NCI-H460, 120 h, Doxorubicin 100 nM alone for 120 hours", "value": 19, "unit": "%"}, {"measurement": "cytotoxicity at 0.2 µM", "setting": "[1]; Homo sapiens, NCI-H460, 120 h, Doxorubicin 200 nM alone for 120 hours", "value": 48, "unit": "%"}, {"measurement": "COX-2 levels (western blot)", "setting": "[2]", "value": "strongly induced COX-2"}, {"measurement": "resistance of NCI-H460/R to doxorubicin", "setting": "[3]", "value": 96.2, "unit": "fold"}]}, {"smiles": "CN1CC[C@@H](c2c(O)cc(O)c3c(=O)cc(-c4ccccc4Cl)oc23)[C@@H]1CO.Cl", "note": "[Compound A, (+)-trans-2-(2-Chloro-phenyl)-5,7-dihydroxy-8-(2-hydroxymethyl-1-methyl-pyrrolidin-3-yl)-chromen-4-one hydrochloride]", "values": [{"measurement": "IC30 concentration after 48 hours treatment", "setting": "[1]; H-460 cells, 48 hours treatment, hydrochloride", "value": "800 nM and ~700 nM"}, {"measurement": "IC50", "setting": "[1]; Homo sapiens, NCI-H460, 48 h, read-out: IC50 concentration after 48 hours treatment, H-460 cells, 48 hours treatment", "value": 1200, "unit": "nM"}, {"measurement": "cytotoxicity at 0.8 µM", "setting": "[1]; Homo sapiens, NCI-H460, 120 h, compound A 800 nM alone for 120 hours", "value": 24, "unit": "%"}, {"measurement": "cytotoxicity at 1.2 µM", "setting": "[1]; Homo sapiens, NCI-H460, 120 h, compound A 1200 nM alone for 120 hours", "value": 44, "unit": "%"}, {"measurement": "% Cytotoxicity", "setting": "[1]; human, 45 h, 1000 nM", "value": 35, "unit": "%"}, {"measurement": "% Cytotoxicity", "setting": "[1]; human, 72 h, 800 nM", "value": 17, "unit": "%"}, {"measurement": "% Cytotoxicity", "setting": "[1]; human, 72 h, 1200 nM", "value": 36, "unit": "%"}, {"measurement": "% Cytotoxicity", "setting": "[1]; human, 96 h, 800 nM", "value": 19, "unit": "%"}, {"measurement": "IC50", "setting": "[1]; read-out: IC50 concentration after 48 hours treatment, H-460 cells, 48 hours treatment, hydrochloride", "value": "~1000", "unit": "nM"}, {"measurement": "apoptosis (sub G1 phase)", "setting": "[4]", "value": 4.3, "unit": "%"}, {"measurement": "IC30 concentration after 48 hours treatment", "setting": "[5]; Panc-1 cells, 48 hours treatment", "value": "~300", "unit": "nM"}, {"measurement": "% Cytotoxicity", "setting": "[5]; complete medium 24 hours, then compound A 300 nM 72 hours", "value": 34, "unit": "%"}, {"measurement": "COX-2 levels (western blot)", "setting": "[2]", "value": "low levels of COX-2"}]}]}
